According to patent US20230295133A1, “PROCESS FOR PREPARING A COMPOUND USEFUL TO TREAT MYCOSES” (PULMOCIDE LIMITED, priority 2014, published 2023):
Converted amounts (≈) assume the structure as drawn.

Legend:
[1] = test system: Aspergillus fumigatus NCPF7100; experiment: Broth microdilution assay (modified EUCAST); assay type: cell-based; conditions: Aspergillus fumigatus, NCPF7100, read-out: MIC75 against Aspergillus fumigatus isolate NCPF7100
[2] = test system: aspergillus fumigatus infection of BEAS2B cells; experiment: Aspergillus fumigatus infection of bronchial epithelial cells (GM in supernatant); assay type: cell-based; conditions: bronchial epithelial cells infected with Aspergillus fumigatus; read-out: MIC50 Infection of BEAS2B cells
Description: BEAS2B cells were seeded in 96-well plates (100 µL; 30,000 cells / well; Catalogue No 3596, Sigma Aldrich, Dorset, UK) in 10% FBS RPMI-1640 and were then incubated (37° C., 5% CO2) for one day before experimentation. Test compounds (0.5 µL DMSO solution) or vehicle (DMSO) were added to each well to give a final DMSO concentration of 0.5%. BEAS2B cells were incubated with test compounds for 1 hr (35° C., 5% CO2) before infection with aspergillus fumigatus (20 µL; Public Health England) conidia suspension (0.5×10^5 /ml in 10% FBS RPMI-1640). The plate was incubated for 24 hr (35° C., 5% CO2). Supernatant (50 µL) was collected and transferred to a PCR plate (Catalogue No L1402-9700, Starlab, Milton Keynes, UK), which was frozen (-20° C.) until use. After thawing, supernatant (5 µL) was diluted 1:20 by adding R7-PBS solution (95 µL; 1:4 R7 to PBS; Bio-Rad Laboratories, Redmond, WA, USA). GM levels in these samples (50 µL) were measured using Platelia GM-EIA kits (Bio-Rad Laboratories, Redmond, WA, USA). The percentage inhibition for each well was calculated and the IC50 value was calculated from the concentration-response curve generated for each test compound.

[3] = Cell viability: resazurin assay; assay type: cell-based, human; conditions: human, BEAS2B cells; n = 3-5
Description: BEAS2B cells were seeded in 384-well plates (100 µL; 3000 / well /; BD Falcon, Catalogue No 353962) in RPMI-LHC8 (RPMI-1640 and LHC8 media combined in equal proportions) one day before experimentation. For cell-free control wells, RPMI-LHC8 (100 µL) was added. Test compounds (0.5 µL of a DMSO solution) were added to give a final DMSO concentration of 0.5% using an Integra VIAFLO 96 (Integra, Zizers, Switzerland). BEAS2B cells were incubated with each test compound for 1 day (37° C. / 5% CO2 in RPMI-LHC8). After addition of resazurin stock solution (5 µL, 0.04%) the plates were incubated for a further 4 hr (37° C. / 5% CO2). The fluorescence of each well at 545 nm (excitation) and 590 nm (emission) was determined using a multi-scanner (Clariostar: BMG Labtech). The percentage loss of cell viability was calculated for each well relative to vehicle (0.5% DMSO) treatment. Where appropriate, a CC50 value was calculated from the concentration-response curve generated from the concentration-response curve for each test compound.

[4] = test system: Aspergillus fumigatus NCPF7099; experiment: Broth microdilution assay (modified EUCAST); assay type: cell-based; conditions: Aspergillus fumigatus, NCPF7099, n = 3, read-out: MIC75 against Aspergillus fumigatus isolate NCPF7099
Description: (§1) This assay was conducted using a modified method published by EUCAST (Rodriguez-Tudela et al., 2008). Spores of aspergillus fumigatus (NCPF2010, NCPF7010 (Methionine 220 mutation), NCPF7099 (Glycine G54 mutation) from Public Health England, Wiltshire; TR34/L98H mutants from St Louis Hospital, Paris, France) were cultured in Sabouraud dextrose agar for 3 days. A stock spore suspension was prepared from a Sabouraud dextrose agar culture by washing with PBS-tween (10 mL; PBS containing 0.05% Tween-20, 100 U/mL Penicillin and 100 U/mL Streptomycin). The spore count was assessed using a Neubauer haemocytometer and then adjusted to 10^6 spores/mL with PBS. A working suspension of spores (2 × 10^5 spores/mL) was prepared in filter sterilised, BSA MOPS RPMI-1640 (50 mL; RPMI-1640 containing 2 mM L-glutamine, 0.5% BSA, 2% glucose, 0.165 M MOPS, buffered to pH 7 with NaOH). For the assay, BSA MOPS RPMI-1640 (50 µL/well) was added throughout the 384-well plate (Catalogue number 353962, BD Falcon, Oxford, UK) first. Test compounds (0.5 µL DMSO solution) were then added in quadruplicate using an Integra VIAFLO 96 (Integra, Zizers, Switzerland), and mixed well using a plate mixer. Subsequently 50 µL of the working spore suspension prepared above was added to all wells except non-spore control wells. For non-spore control wells, BSA MOPS-RPMI solution (50 µL/well) was added instead. The plate was covered with a plastic lid, and incubated (35° C. with ambient air) for 48 hr. The OD of each well at 530 nm was determined using a multi-scanner (Clariostar: BMG, Buckinghamshire, UK). The percentage inhibition for each well was calculated and the MIC50, MIC75 and MIC90 values were calculated from the concentration-response curve generated for each test compound.

[5] = test system: Aspergillus fumigatus NCPF2010; experiment: Broth microdilution assay (modified EUCAST); assay type: cell-based; conditions: Aspergillus fumigatus, NCPF2010, read-out: MIC75 against Aspergillus fumigatus isolate NCPF2010
Description: as §1

[6] = test system: Aspergillus fumigatus L98H (TR34/L98H); experiment: Broth microdilution assay (modified EUCAST); assay type: cell-based; conditions: Aspergillus fumigatus, read-out: MIC75 against Aspergillus fumigatus isolate L98H
Description: as §1

Row | Compound | MIC [1] [µM] | MIC50 [2] [µM] | CC50 at 1 day [3] [µM] | MIC [4] [µM] | MIC [5] [µM] | MIC [6] [µM]
1 | Cc1cc(N2CCN(c3ccc(C(=O)Nc4ccc(F)cc4)cc3)CC2)cc(C)c1OC[C@@H]1CO[C@@](Cn2cncn2)(c2ccc(F)cc2F)C1 [Example 15, 4-(4-(4-(((3R,5R)-5-((1H-1,2,4-triazol-1-yl)methyl)-5-(2,4-difluorophenyl)tetrahydrofuran-3-yl)methoxy)-3,5-dimethylphenyl)piperazin-1-yl)-N-(4-fluorophenyl)benzamide] | 0.00845 (≈ 0.00589 µg/mL) | 0.00764 (≈ 0.00532 µg/mL) | > 14.4 | 0.0184 (≈ 0.0128 µg/mL) | 0.029 (≈ 0.0202 µg/mL) | > 1.44
2 | CNS(=O)(=O)c1ccc(NC(=O)c2ccc(N3CCN(c4ccc(OC[C@@H]5CO[C@@](Cn6cncn6)(c6ccc(F)cc6F)C5)c(C)c4)CC3)cc2)cc1 [Example 20, 4-(4-(4-(((3R, 5R)-5-((1H-1,2,4-triazol-1-yl)methyl)-5-(2,4-difluorophenyl)tetrahydrofuran-3-yl)methoxy)-3-methylphenyl)piperazin-1-yl)-N-(4-(N-methylsulfamoyl)phenyl)benzamide] | 0.0146 (≈ 0.0111 µg/mL) | 0.0361 (≈ 0.0274 µg/mL) | > 13.2 | 0.0111 (≈ 0.00841 µg/mL) | 0.0188 (≈ 0.0142 µg/mL) | 0.0461 (≈ 0.0349 µg/mL)
3 | Cc1cc(N2CCN(c3ccc(C(=O)Nc4ccc(S(=O)(=O)N(C)C)cc4)cc3)CC2)ccc1OC[C@@H]1CO[C@@](Cn2cncn2)(c2ccc(F)cc2F)C1 [Example 21] | 0.0317 (≈ 0.0245 µg/mL) | 0.00386 (≈ 0.00298 µg/mL) | > 13 | 0.0211 (≈ 0.0163 µg/mL) | 0.0374 (≈ 0.0289 µg/mL) | 0.0517 (≈ 0.0399 µg/mL)
4 | Cc1cc(N2CCN(c3ccc(C(=O)Nc4ccc(OC(F)F)c(F)c4)cc3)CC2)ccc1OC[C@@H]1CO[C@@](Cn2cncn2)(c2ccc(F)cc2F)C1 [Example 25, 4-(4-(4-(((3R,5R)-5-((1H-1,2,4-triazol-1-yl)methyl)-5-(2,4-difluorophenyl)tetrahydrofuran-3-yl)methoxy)-3-methylphenyl)piperazin-1-yl)-N-(4-(difluoromethoxy)-3-fluorophenyl) benzamide] | 0.0476 (≈ 0.0356 µg/mL) | 0.23 (≈ 0.172 µg/mL) | > 13.4 | 0.0251 (≈ 0.0188 µg/mL) | 0.0845 (≈ 0.0633 µg/mL) | 0.0659 (≈ 0.0493 µg/mL)
5 | Cc1cc(N2CCN(c3ccc(C(=O)Nc4cc(F)ccc4F)cc3)CC2)ccc1OC[C@@H]1CO[C@@](Cn2cncn2)(c2ccc(F)cc2F)C1 [Example 26, 4-(4-(4-(((3R, 5R)-5-((1H-1,2,4-triazol-1-yl)methyl)-5-(2,4-difluorophenyl)tetrahydrofuran-3-yl)methoxy)-3-methylphenyl)piperazin-1-yl)-N-(2,5-difluorophenyl)benzamide] | 0.091 (≈ 0.0638 µg/mL) | > 1.43 | > 14.3 | 0.131 (≈ 0.0918 µg/mL) | 0.0311 (≈ 0.0218 µg/mL) | 0.126 (≈ 0.0883 µg/mL)
6 | Cc1cc(N2CCN(c3ccc(C(=O)Nc4cc(F)cc(F)c4)cc3)CC2)ccc1OC[C@@H]1CO[C@@](Cn2cncn2)(c2ccc(F)cc2F)C1 [Example 28, 4-(4-(4-(((3R, 5R)-5-((1H-1,2,4-triazol-1-yl)methyl)-5-(2,4-difluorophenyl)tetrahydrofuran-3-yl)methoxy)3-methylphenyl)piperazin-1-yl)-N-(3,5-difluorophenyl)benzamide] | 0.0361 (≈ 0.0253 µg/mL) | 0.0117 (≈ 0.0082 µg/mL) | > 14.3 | 0.0266 (≈ 0.0186 µg/mL) | 0.0319 (≈ 0.0224 µg/mL) | 0.198 (≈ 0.139 µg/mL)
7 | Cc1cc(N2CCN(c3ccc(C(=O)Nc4ccc(Cl)cc4F)cc3)CC2)ccc1OC[C@@H]1CO[C@@](Cn2cncn2)(c2ccc(F)cc2F)C1 [Example 29, 4-(4-(4-(((3R, 5R)-5-((1H-1,2,4-triazol-1-yl)methyl)-5-(2,4-difluorophenyl)tetrahydrofuran-3-yl)methoxy)-3-methylphenyl)piperazin-1-yl)-N-(4-chloro-2-fluorophenyl)benzamide] | 0.0538 (≈ 0.0386 µg/mL) | 0.0145 (≈ 0.0104 µg/mL) | > 13.9 | 0.037 (≈ 0.0265 µg/mL) | 0.0285 (≈ 0.0204 µg/mL) | 0.12 (≈ 0.0861 µg/mL)
8 | Cc1cc(N2CCN(c3ccc(C(=O)Nc4ccc(Cl)c(F)c4)cc3)CC2)ccc1OC[C@@H]1CO[C@@](Cn2cncn2)(c2ccc(F)cc2F)C1 [Example 30, 4-(4-(4-(((3R, 5R)-5-((1H-1,2,4-triazol-1-yl)methyl)-5-(2,4-difluorophenyl)tetrahydrofuran-3-yl)methoxy)-3-methylphenyl)piperazin-1-yl)-N-(4-chloro-3-fluorophenyl)benzamide] | 0.0413 (≈ 0.0296 µg/mL) | 1.05 (≈ 0.753 µg/mL) | > 13.9 | 0.0347 (≈ 0.0249 µg/mL) | 0.0584 (≈ 0.0419 µg/mL) | 0.191 (≈ 0.137 µg/mL)
9 | Cc1cc(N2CCN(c3ccc(C(=O)Nc4c(F)cc(F)cc4F)cc3)CC2)ccc1OC[C@@H]1CO[C@@](Cn2cncn2)(c2ccc(F)cc2F)C1 [Example 31, 4-(4-(4-(((3R, 5R)-5-((1H-1,2,4-triazol-1-yl)methyl)-5-(2,4-difluorophenyl)tetrahydrofuran-3-yl)methoxy)3-methylphenyl)piperazin-1-yl)-N-(2,4,6-trifluorophenyl)benzamide] | 0.0679 (≈ 0.0488 µg/mL) | 0.0107 (≈ 0.00769 µg/mL) | > 13.9 | 0.0109 (≈ 0.00783 µg/mL) | 0.0439 (≈ 0.0316 µg/mL) | 0.163 (≈ 0.117 µg/mL)
10 | Cc1cc(N2CCN(c3ccc(C(=O)Nc4ccc(F)cc4)cc3C)CC2)ccc1OC[C@@H]1CO[C@@](Cn2cncn2)(c2ccc(F)cc2F)C1 [Example 32, 4-(4-(4-(((3R,5R)-5-((1H-1,2,4-triazol-1-yl)methyl)-5-(2,4-difluorophenyl)tetrahydrofuran-3-yl)methoxy)-3-methylphenyl)piperazin-1-yl)-N-(4-fluorophenyl)-3-methylbenzamide] | 0.0609 (≈ 0.0424 µg/mL) | 0.0261 (≈ 0.0182 µg/mL) | > 14.4 | 0.0481 (≈ 0.0335 µg/mL) | 0.0697 (≈ 0.0486 µg/mL) | 0.0695 (≈ 0.0484 µg/mL)
11 | Cc1cc(N2CCN(c3ccc(C(=O)Nc4ccc(F)cc4)c(C)c3)CC2)ccc1OC[C@@H]1CO[C@@](Cn2cncn2)(c2ccc(F)cc2F)C1 [Example 33, 4-(4-(4-(((3R, 5R)-5-((1H-1,2,4-triazol-1-yl)methyl)-5-(2,4-difluorophenyl)tetrahydrofuran-3-yl)methoxy)-3-methylphenyl)piperazin-1-yl)-N-(4-fluorophenyl)-2-methylbenzamide] | 0.0236 (≈ 0.0164 µg/mL) | 0.0435 (≈ 0.0303 µg/mL) | > 14.4 | 0.0489 (≈ 0.0341 µg/mL) | 0.0135 (≈ 0.00941 µg/mL) | 0.0679 (≈ 0.0473 µg/mL)
